Laboratory results from ChEMBL document CHEMBL1147699, “Studies on the novel alpha-glucosidase inhibitory activity and structure-activity relationships for andrographolide analogues” (Bioorg Med Chem Lett, 2006).
Activity calls are given as the source filed them. The calls are words filed in the database; no cut-off is given here.

Tests used:
[1] = target: T1, Cytosolic beta-glucosidase (Homo sapiens) (UniProt Q9H227); assay: Inhibition of beta glucosidase at 100 uM
T1 sequence (whole entry): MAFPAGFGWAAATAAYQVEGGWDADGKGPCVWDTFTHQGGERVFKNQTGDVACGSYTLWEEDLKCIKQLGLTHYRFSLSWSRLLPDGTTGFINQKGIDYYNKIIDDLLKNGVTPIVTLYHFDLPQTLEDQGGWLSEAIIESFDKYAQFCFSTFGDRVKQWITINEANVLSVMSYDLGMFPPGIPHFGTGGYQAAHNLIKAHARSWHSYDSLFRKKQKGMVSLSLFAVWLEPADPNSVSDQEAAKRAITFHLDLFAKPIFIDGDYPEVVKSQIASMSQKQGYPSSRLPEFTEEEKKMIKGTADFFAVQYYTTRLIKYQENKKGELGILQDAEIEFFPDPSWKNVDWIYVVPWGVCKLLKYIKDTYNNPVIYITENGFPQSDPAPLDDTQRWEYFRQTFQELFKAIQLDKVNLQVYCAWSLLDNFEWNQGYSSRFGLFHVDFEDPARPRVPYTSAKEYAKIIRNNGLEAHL

[2] = target: Maltase-glucoamylase (Homo sapiens) (UniProt O43451); assay: Inhibition of alpha glucosidase at 100 uM
Sequence of Maltase-glucoamylase (Homo sapiens) (O43451 whole entry, looked up): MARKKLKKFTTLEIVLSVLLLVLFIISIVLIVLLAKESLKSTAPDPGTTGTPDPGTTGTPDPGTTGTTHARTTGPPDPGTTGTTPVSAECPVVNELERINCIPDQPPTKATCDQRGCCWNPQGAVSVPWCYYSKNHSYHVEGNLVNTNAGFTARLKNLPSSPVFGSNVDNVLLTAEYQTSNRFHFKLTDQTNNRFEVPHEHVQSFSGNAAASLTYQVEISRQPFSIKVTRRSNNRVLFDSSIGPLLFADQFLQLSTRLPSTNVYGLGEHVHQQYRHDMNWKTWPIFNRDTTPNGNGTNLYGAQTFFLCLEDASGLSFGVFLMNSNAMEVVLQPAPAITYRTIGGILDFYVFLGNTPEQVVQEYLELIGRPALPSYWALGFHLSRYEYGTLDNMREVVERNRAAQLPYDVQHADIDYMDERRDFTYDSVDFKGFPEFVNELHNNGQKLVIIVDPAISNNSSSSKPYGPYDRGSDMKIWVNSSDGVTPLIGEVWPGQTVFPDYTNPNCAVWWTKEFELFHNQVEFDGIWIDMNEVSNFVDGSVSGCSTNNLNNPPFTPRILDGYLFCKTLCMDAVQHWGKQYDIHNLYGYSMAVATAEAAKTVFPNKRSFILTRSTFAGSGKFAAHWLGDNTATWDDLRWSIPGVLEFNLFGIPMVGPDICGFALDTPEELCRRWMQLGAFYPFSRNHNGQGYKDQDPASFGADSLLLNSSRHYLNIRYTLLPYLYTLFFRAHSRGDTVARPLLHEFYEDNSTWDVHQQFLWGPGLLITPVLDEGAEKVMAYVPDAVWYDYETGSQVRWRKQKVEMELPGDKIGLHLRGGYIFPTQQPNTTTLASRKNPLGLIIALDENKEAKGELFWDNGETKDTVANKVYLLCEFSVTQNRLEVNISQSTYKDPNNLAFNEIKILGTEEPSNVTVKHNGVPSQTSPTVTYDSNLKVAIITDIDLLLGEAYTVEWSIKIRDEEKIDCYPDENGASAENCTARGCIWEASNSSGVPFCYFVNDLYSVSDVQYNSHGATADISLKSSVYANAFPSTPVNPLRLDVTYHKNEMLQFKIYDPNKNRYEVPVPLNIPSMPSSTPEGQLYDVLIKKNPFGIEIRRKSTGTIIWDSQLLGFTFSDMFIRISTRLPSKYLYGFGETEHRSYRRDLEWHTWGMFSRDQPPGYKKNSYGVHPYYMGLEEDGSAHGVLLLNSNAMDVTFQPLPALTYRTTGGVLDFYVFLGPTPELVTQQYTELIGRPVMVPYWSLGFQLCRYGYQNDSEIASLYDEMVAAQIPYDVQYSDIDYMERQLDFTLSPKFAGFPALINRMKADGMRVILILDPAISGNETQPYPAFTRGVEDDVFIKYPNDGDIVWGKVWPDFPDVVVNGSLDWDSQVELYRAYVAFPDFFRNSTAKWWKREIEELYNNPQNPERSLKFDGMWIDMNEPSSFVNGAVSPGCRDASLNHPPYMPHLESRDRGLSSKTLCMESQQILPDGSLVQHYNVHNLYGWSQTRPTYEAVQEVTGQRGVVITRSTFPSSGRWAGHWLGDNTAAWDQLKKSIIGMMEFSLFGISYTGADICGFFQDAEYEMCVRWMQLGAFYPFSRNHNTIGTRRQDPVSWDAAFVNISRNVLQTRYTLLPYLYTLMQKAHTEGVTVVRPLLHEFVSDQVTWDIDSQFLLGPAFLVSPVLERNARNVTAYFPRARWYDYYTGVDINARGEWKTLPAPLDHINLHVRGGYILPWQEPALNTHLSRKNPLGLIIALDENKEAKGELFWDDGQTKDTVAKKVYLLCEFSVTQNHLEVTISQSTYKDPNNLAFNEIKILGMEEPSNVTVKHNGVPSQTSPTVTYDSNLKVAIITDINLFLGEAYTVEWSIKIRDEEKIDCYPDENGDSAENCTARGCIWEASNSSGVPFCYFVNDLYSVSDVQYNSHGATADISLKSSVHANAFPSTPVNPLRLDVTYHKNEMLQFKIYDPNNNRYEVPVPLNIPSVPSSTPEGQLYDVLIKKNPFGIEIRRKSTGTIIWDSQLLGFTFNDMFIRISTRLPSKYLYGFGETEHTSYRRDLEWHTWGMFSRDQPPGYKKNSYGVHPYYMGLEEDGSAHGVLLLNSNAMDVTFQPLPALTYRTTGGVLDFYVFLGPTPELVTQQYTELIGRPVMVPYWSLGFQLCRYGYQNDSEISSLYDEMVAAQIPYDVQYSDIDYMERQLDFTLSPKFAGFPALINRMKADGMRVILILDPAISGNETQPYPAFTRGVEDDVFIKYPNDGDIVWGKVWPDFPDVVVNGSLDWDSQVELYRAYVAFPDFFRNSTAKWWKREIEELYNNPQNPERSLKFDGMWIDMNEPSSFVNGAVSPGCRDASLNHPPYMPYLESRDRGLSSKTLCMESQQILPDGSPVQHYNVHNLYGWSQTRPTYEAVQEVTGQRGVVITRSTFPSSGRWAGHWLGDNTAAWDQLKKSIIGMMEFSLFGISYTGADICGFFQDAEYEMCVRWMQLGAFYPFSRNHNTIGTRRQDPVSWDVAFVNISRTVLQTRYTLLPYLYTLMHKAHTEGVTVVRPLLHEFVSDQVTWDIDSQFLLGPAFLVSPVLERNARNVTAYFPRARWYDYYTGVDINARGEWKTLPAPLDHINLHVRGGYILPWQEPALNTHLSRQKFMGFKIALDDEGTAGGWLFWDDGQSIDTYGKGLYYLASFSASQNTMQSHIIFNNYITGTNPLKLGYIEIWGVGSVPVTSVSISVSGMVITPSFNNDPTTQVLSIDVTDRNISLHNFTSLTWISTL

inhibition [1]	inhibition [2]	Structure (SMILES)
inactive	inactive	C=C1CC[C@@H]2[C@]3(C)COC(CCCC)O[C@@H]3CC[C@@]2(C)[C@@H]1C/C=C1/C(=O)OC[C@H]1O (stereo not given in full)
–	49.6%	C=C1CC[C@@H]2[C@]3(C)COC(c4cccc(Br)c4)O[C@@H]3CC[C@@]2(C)[C@@H]1C/C=C1/C(=O)OC[C@H]1O (stereo not given in full)
inactive	inactive	C=C1CC[C@@H]2[C@](C)(CO)[C@H](O)CC[C@@]2(C)/C1=C/C=C1\C=COC1=O
–	49.2%	C[C@]1(CO)[C@H]2CC[C@@]3(CO3)[C@@H](/C=C/C3=CC(=C/C=C/c4ccccc4)/OC3=O)[C@]2(C)CC[C@H]1O
–	100%	C=C1CC[C@@H]2[C@](C)(CO)[C@H](O)CC[C@@]2(C)[C@@H]1/C=C/C1=CC(=C/c2ccc(OC)cc2)/OC1=O
–	inactive	CC(C)=C1C=C(/C=C/[C@@H]2[C@@]3(CC[C@@H]4[C@](C)(CO)[C@H](O)CC[C@]42C)CO3)C(=O)O1
–	48.9%	C=C1CC[C@@H]2[C@]3(C)COC(c4ccccc4)O[C@@H]3CC[C@@]2(C)[C@@H]1C/C=C1/C(=O)OC[C@H]1O (stereo not given in full)
inactive	inactive	C=C1CC[C@@H]2[C@]3(C)COC(C)(C)O[C@@H]3CC[C@@]2(C)[C@@H]1C/C=C1/C(=O)OC[C@H]1O
inactive	inactive	C=C1CC[C@@H]2[C@]3(C)COCO[C@@H]3CC[C@@]2(C)[C@@H]1C/C=C1/C(=O)OC[C@H]1O
inactive	17.1%	C=C1CC[C@@H]2[C@](C)(CO)[C@H](O)CC[C@@]2(C)[C@@H]1/C=C/C1=CC(=C(C)C)OC1=O
–	84.3%	C=C1CC[C@@H]2[C@](C)(CO)[C@H](O)CC[C@@]2(C)[C@@H]1/C=C/C1=CC(=C/C=C/c2ccccc2)/OC1=O
inactive	34.2%	C=C1CC[C@@H]2[C@](C)(CO)[C@H](O)CC[C@@]2(C)[C@@H]1CCC1C(=O)OC[C@H]1O (stereo not given in full)
–	16.7%	C=C1CC[C@@H]2[C@](C)(CO)[C@H](O)CC[C@@]2(C)[C@@H]1/C=C/C1=CC(=C/c2cccc(Br)c2)/OC1=O
–	inactive	C=C1CC[C@@H]2[C@](C)(CO)[C@H](O)CC[C@@]2(C)[C@@H]1/C=C/C1=CC(=C/c2ccc(F)cc2)/OC1=O
–	inactive	C=C1CC[C@@H]2[C@](C)(CO)[C@H](O)CC[C@@]2(C)[C@@H]1/C=C/C1=CC(=C/c2ccc(Cl)cc2)/OC1=O
inactive	43.5%	C=C1CC[C@@H]2[C@](C)(CO)[C@H](O)CC[C@@]2(C)[C@@H]1/C=C/C1=CC(=C/CCC)/OC1=O
–	37.7%	COc1ccc(/C=C2C=C(/C=C/[C@@H]3[C@@]4(CC[C@@H]5[C@](C)(CO)[C@H](O)CC[C@]53C)CO4)C(=O)O/2)cc1
–	26.2%	C=C1CC[C@@H]2[C@]3(C)COC(c4ccc(F)cc4)O[C@@H]3CC[C@@]2(C)[C@@H]1C/C=C1/C(=O)OC[C@H]1O (stereo not given in full)
–	inactive	C=C1CC[C@@H]2[C@](C)(CO)[C@H](O)CC[C@@]2(C)[C@@H]1/C=C/C1=CC(=C/C=C(/C)CCC=C(C)C)/OC1=O
–	inactive	C[C@]1(CO)[C@H]2CC[C@@]3(CO3)[C@@H](/C=C/C3=CCOC3=O)[C@]2(C)CC[C@H]1O
inactive	20.1%	C=C1CC[C@@H]2[C@]3(C)COC(CCCCCC)O[C@@H]3CC[C@@]2(C)[C@@H]1C/C=C1/C(=O)OC[C@H]1O (stereo not given in full)
–	5.5%	C=C1CC[C@@H]2[C@]3(C)COC(c4ccccc4OC)O[C@@H]3CC[C@@]2(C)[C@@H]1C/C=C1/C(=O)OC[C@H]1O (stereo not given in full)
inactive	inactive	C=C1CC[C@@H]2[C@]3(C)COC(c4ccc(Cl)cc4)O[C@@H]3CC[C@@]2(C)[C@@H]1C/C=C1/C(=O)OC[C@H]1O (stereo not given in full)
inactive	inactive	C=C1CC[C@@H]2[C@](C)(CO)[C@H](O)CC[C@@]2(C)[C@@H]1C/C=C1/C(=O)OC[C@H]1O
–	13.2%	C=C1CC[C@@H]2[C@]3(C)COC(c4ccc(OC)cc4)O[C@@H]3CC[C@@]2(C)[C@@H]1C/C=C1/C(=O)OC[C@H]1O (stereo not given in full)
inactive	15.1%	C=C1CC[C@@H]2[C@](C)(CO)[C@H](O)CC[C@@]2(C)[C@@H]1/C=C/C1=CC(=C/C)/OC1=O
–	14.5%	C=C1CC[C@@H]2[C@]3(C)COC(c4cc(OC)c(OC)cc4OC)O[C@@H]3CC[C@@]2(C)[C@@H]1C/C=C1/C(=O)OC[C@H]1O (stereo not given in full)
inactive	16.5%	C=C1CC[C@@H]2[C@](C)(CO)[C@H](O)CC[C@@]2(C)[C@@H]1/C=C/C1=CCOC1=O
